As a reminder, the IC50 is the concentration at which inhibition is half-maximal.

Our source for the IC50 values is patent US20220227765A1, “PYRIDO-INDOLE ANALOGUES AS GPX4 INHIBITORS” (Ferro Therapeutics, Inc., priority 2019, published 2022).

Common to all, as to format: cell-based, human
In one assay the test system is SJSA-1. Nature of the assay: Cell proliferation (Alamar Blue) assay, SJSA-1. How it is done:
(§1) Cell viability assay was performed to assess the potency of the compounds in human cancer cell lines 786-0 (renal cell carcinoma) and SJSA-1 (osteosarcoma). Additional cell lines, such as pancreatic cancer cell lines (Panc 02.13, BxPC-3, Panc 12, Panc 02.03, Panc 6.03, PSN-1, HPAC, and Capan-1), prostate cancer cell lines (PC-3, DU145, 22Rv1, NCI-H660, BPH1, LNCaP, BM-1604, and MDA PCa 2b), etc., can be tested in a similar method.
(§2) Cells (SJSA-1, 786-0 and A431) were seeded (5000 cells/100 μL/well) in 96-well tissue culture plate and incubated at 37° C./5% CO2 for 16-24 hours. The cells were then treated with compounds (25 μL of 5×). The compound concentrations were 10-0.0005 μM prepared in 3-fold serial dilutions with final DMSO concentration of 1%. The plates were then incubated for 24 h at 37° C./5% CO2 in a moist environment. Then Alamar Blue™ reagent (final concentration 1×-12.5 μL) was added to each well and incubated for 1.5 hours at 37° C./5% CO2. The plates were read on fluorescence reader at 540 nm excitation and 590 nm emission wavelengths. The IC50 values were subsequently determined using a sigmoidal dose-response curve (variable slope) in GraphPad Prism® 5 software. Table A-3, Table B-3 and Table C-3 show cell proliferation data for certain compounds as described herein.
Background: Alamar Blue is a resazurin reagent that responds to reducing activity.

A further assay deals with A431. In words: Cell proliferation (Alamar Blue) assay, A431. The method, then: as §1, §2
The next assay has as its system 786-O. Nature of the assay: Cell proliferation (Alamar Blue) assay, 786-O. How it is done: as §1, §2
Setting [1] is: Homo sapiens, SJSA-1, 24 h, Table A-3, SJSA-1 cells, 24 h, read-out: IC50 (μM) SJSA-1.
[2] abbreviates: Homo sapiens, A-431, 24 h, Table A-3, A431 cells.
The mark [3] stands for this setting: Homo sapiens, 786-0, 24 h, Table A-3, 786-O cells.
The mark [4] stands for this setting: Homo sapiens, SJSA-1, 24 h, Table B-3, head prints SJSB-1, 24 h, read-out: IC50 (μM) SJSB-1.
Where [5] appears, read: Homo sapiens, A-431, 24 h, Table B-3, A431 cells.
The mark [6] stands for this setting: Homo sapiens, 786-0, 24 h, Table B-3, 786-O cells.
The mark [7] stands for this setting: Table B-3, head prints SJSB-1, 24 h, read-out: IC50 (μM) SJSB-1.
[8] abbreviates: Homo sapiens, SJSA-1, 24 h, Table C-3, SJSA-1 cells, 24 h, read-out: IC50 (μM) SJSA-1.
[9] abbreviates: Homo sapiens, 786-0, 24 h, Table C-3, 786-O cells.
Setting [10] is: Homo sapiens, A-431, 24 h, Table C-3, A431 cells.

Read-outs that look alike come from different tables or passages of the source.

For `C[C@H]1Cc2c([nH]c3ncccc23)[C@H](c2ccc(F)cc2)N1C(=O)CCl` [Compound A-1], the IC50 in the assay with SJSA-1 (setting [1]) was 0.145 µM; in the assay on A431 (setting [2]), greater than 10 µM; in the assay on 786-O (setting [3]), 0.03 µM.
The matching figures for `C[C@H]1Cc2c([nH]c3ncccc23)[C@@H](c2ccc(F)cc2)N1C(=O)CCl` [Compound A-2]: 9.11 µM, 7.06 µM and 3.52 µM.
The matching figures for `C#CC(=O)N1[C@@H](CCCC)Cc2c([nH]c3ncccc23)[C@@H]1c1ccc(F)cc1` [Compound A-3]: 0.017 µM, 8.36 µM and 0.017 µM.
Turning to `C#CC(=O)N1[C@@H](CCCC)Cc2c([nH]c3ncccc23)[C@@H]1c1ccc(NC23CC4CC(CC(C4)C2)C3)cc1` [Compound A-7], the results for the IC50 in the assay on SJSA-1 (setting [1]), in the assay with A431 (setting [2]) and in the assay with 786-O (setting [3]) were 0.058 µM, 4.88 µM and 0.034 µM, respectively.
Turning to `CCCC[C@H]1Cc2c([nH]c3ccccc23)[C@H](c2ccc(C(=O)NC34CC5CC(CC(C5)C3)C4)cc2)N1C(=O)CCl` [Compound B-1, N-((1R,3R)-adamantan-1-yl)-4-((1S,3S)-3-butyl-2-(2-chloroacetyl)-2,3,4,9-tetrahydro-1H-pyrido[3,4-b]indol-1-yl)benzamide], the IC50 in the assay with SJSA-1 (setting [4]) is 0.003 µM; in the assay on A431 (setting [5]), 2.7 µM; with 786-O (setting [6]) it was 0.001 µM.
The like results for `C#CC(=O)N1[C@@H](CCCC)Cc2c([nH]c3ccccc23)[C@@H]1c1ccc(-c2nc(C)no2)cc1` [Compound B-2, 1-((1S,3S)-3-butyl-1-(4-(3-methyl-1,2,4-oxadiazol-5-yl)phenyl)-1,3,4,9-tetrahydro-2H-pyrido[3,4-b]indol-2-yl)prop-2-yn-1-one] were, in that order, 0.014 µM, 3.2 µM and 0.006 µM.
As for `C#CC(=O)N1[C@@H](CCCC)Cc2c([nH]c3ccccc23)[C@@H]1c1ccc(NC2CCC2)cc1` [Compound B-4, 1-((1S,3S)-3-butyl-1-(4-(cyclobutylamino)phenyl)-1,3,4,9-tetrahydro-2H-pyrido[3,4-b]indol-2-yl)prop-2-yn-1-one], the IC50 was found to be 0.015 µM with SJSA-1 (setting [4]), 5.9 µM in the assay on A431 (setting [5]) and 0.008 µM in the assay with 786-O (setting [6]).
The matching figures for `C#CC(=O)N1[C@@H](c2ccc(NC34CC5CC(CC(C5)C3)C4)cc2)c2[nH]c3ccccc3c2C[C@@H]1C(=O)OC` [Compound B-6, methyl (1S,3R)-1-(4-(((3R,5R,7R)-adamantan-1-yl)amino)phenyl)-2-propioloyl-2,3,4,9-tetrahydro-1H-pyrido[3,4-b]indole-3-carboxylate]: 0.024 µM, 6.1 µM and 0.024 µM.
The like results for `C#CC(=O)N1[C@@H](CCCC)Cc2c([nH]c3ccccc23)[C@@H]1c1ccc(C(=O)NC23CC4CC(CC(C4)C2)C3)cc1` [Compound B-7, N-((3R,5R,7R)-adamantan-1-yl)-4-((1S,3S)-3-butyl-2-propioloyl-2,3,4,9-tetrahydro-1H-pyrido[3,4-b]indol-1-yl)benzamide] were, in that order, 0.002 µM, 5.5 µM and 0.002 µM.
As to `COC(=O)[C@H]1Cc2c([nH]c3ccccc23)[C@H](c2ccc(N(C(=O)CCCC[C@@H]3SC[C@@H]4NC(=O)N[C@@H]43)C3CC3)cc2)N1C(=O)CCl` [Compound B-8, methyl (1S,3R)-2-(2-chloroacetyl)-1-(4-(N-cyclopropyl-5-((3aS,4S,6aR)-2-oxohexahydro-1H-thieno[3,4-d]imidazol-4-yl)pentanamido)phenyl)-2,3,4,9-tetrahydro-1H-pyrido[3,4-b]indole-3-carboxylate], the concentration for half-maximal inhibition (IC50) in the assay on SJSA-1 (setting [4]) turned out to be 1.9 µM; in the assay on 786-O (setting [6]) it was 1.7 µM.
Consider `COC(=O)[C@H]1Cc2c([nH]c3ccccc23)[C@@H](c2ccc(N(C(=O)CCCC[C@@H]3SC[C@@H]4NC(=O)N[C@@H]43)C3CC3)cc2)N1C(=O)CCl` [Compound B-9, methyl (1R,3R)-2-(2-chloroacetyl)-1-(4-(N-cyclopropyl-5-((3aS,4S,6aR)-2-oxohexahydro-1H-thieno[3,4-d]imidazol-4-yl)pentanamido)phenyl)-2,3,4,9-tetrahydro-1H-pyrido[3,4-b]indole-3-carboxylate], for which the IC50 in the assay with SJSA-1 (setting [4]) and in the assay with 786-O (setting [6]) was greater than 10 µM each time.
With `C#CC(=O)N1[C@@H](CCCC)Cc2c([nH]c3ccc(F)cc23)[C@@H]1c1ccc(C(=O)NCCOC)cc1` [Compound B-11], the IC50 in the assay on SJSA-1 (setting [4]) worked out at 0.025 µM; with A431 (setting [5]), 4.3 µM; in the assay with 786-O (setting [6]) it was 0.008 µM.
The matching figures for `C#CC(=O)N1[C@@H](CCCC)Cc2c([nH]c3ccccc23)[C@@H]1c1ccc(NC2CCS(=O)(=O)CC2)cc1` [Compound B-13]: 0.018 µM, 7.2 µM and 0.013 µM.
The matching figures for `CCCC[C@H]1Cc2c([nH]c3ccccc23)[C@H](c2ccc(NC(=O)c3ccncc3)cc2)N1C(=O)CCl` [Compound B-14]: 0.019 µM, 3 µM and 0.015 µM.
The like results for `C#CC(=O)N1[C@@H](CCCC)Cc2c([nH]c3ccccc23)[C@@H]1c1ccc(NC(=O)c2ccncc2)cc1` [Compound B-15] were, in that order, 0.029 µM, greater than 10 µM and 0.013 µM.
For the molecule `C#CC(=O)N1[C@@H](CCCC)Cc2c([nH]c3ccccc23)[C@@H]1c1ccc(C(=O)NCC2(O)CCC2)cc1` [Compound B-16], the values for the IC50 in the assay with SJSA-1 (setting [4]), in the assay on A431 (setting [5]) and in the assay on 786-O (setting [6]) were 0.029 µM, 6.4 µM and 0.007 µM, respectively.
As for `C#CC(=O)N1[C@@H](CCCC)Cc2c([nH]c3ccccc23)[C@@H]1c1ccc(NC23CC4CC(CC(C4)C2)C3)cc1` [Compound B-17], the IC50 is 0.008 µM in the assay on SJSA-1 (setting [7]); 3.6 µM in the assay on A431 (Table B-3, A431 cells, 24 h); 0.006 µM with 786-O (Table B-3, 786-O cells, 24 h).
In the case of `C#CC(=O)N1[C@@H](CCCC)Cc2c([nH]c3ccccc23)[C@@H]1c1ccc(NC23CC4CC(CC(O)(C4)C2)C3)cc1` [Compound B-44], the values for the IC50 in the assay with SJSA-1 (setting [4]) and with 786-O (setting [6]) were 0.014 µM and 0.006 µM, respectively.
As for `C#CC(=O)N1[C@@H](CCCC)Cc2c([nH]c3ccccc23)[C@@H]1c1ccc(N2C3CCC2COC3)cc1` [Compound B-66, 1-((1 S,3 S)-1-(4-(3-oxa-8-azabicyclo[3.2.1]octan-8-yl)phenyl)-3-butyl-1,3,4,9-tetrahydro-2H-pyrido[3,4-b]indol-2-yl)prop-2-yn-1-one], 4.35 µM corresponded to half-maximal inhibition in the assay on A431 (setting [5]) (IC50).
For `C#CC(=O)N1[C@@H](CCCC)Cc2c([nH]c3c(F)cc(F)cc23)[C@@H]1C1CCN(C(=O)OC)CC1` [Compound B-75], the IC50 is 0.06 µM in the assay on SJSA-1 (setting [7]) and 0.03 µM in the assay on 786-O (Table B-3, 786-O cells, 24 h).
`C#CC(=O)N1[C@@H](CCCC)Cc2c([nH]c3c(F)cc(F)cc23)[C@@H]1C12CC(NC(=O)OCCCCC)(C1)C2` [Compound B-84]: the results for the IC50 in the assay with SJSA-1 (setting [4]) and with 786-O (setting [6]) were 0.084 µM and 0.086 µM, respectively.
On to `C#CC(=O)N1[C@@H](CCCC)Cc2c([nH]c3c(F)cc(F)cc23)[C@@H]1c1ccc(NC(=O)OCCCCC)cc1` [Compound B-91], for which the IC50 was 0.075 µM with SJSA-1 (setting [7]) and 0.076 µM with 786-O (Table B-3, 786-O cells, 24 h).
With `C#CC(=O)N1[C@@H](CCCC)Cc2c(n(C)c3c(F)cc(F)cc23)[C@@H]1c1ccc(NC(=O)OCCCCC)cc1` [Compound B-96], the figures for the IC50 in the assay on SJSA-1 (setting [4]) and in the assay with 786-O (setting [6]) were 0.293 µM and 0.08 µM, respectively.
As to `C#CC(=O)N1[C@@H](CCCC)Cc2c(n(CC(O)CO)c3c(F)cc(F)cc23)[C@@H]1c1ccc(NC(=O)OCCCCC)cc1` (some centres unmarked) [Compound B-98], the IC50 with A431 (setting [5]) is greater than 10 µM; in the assay with 786-O (setting [6]) it was 0.181 µM.
As to `C#CC(=O)N1[C@@H](CCCC)Cc2c(oc3ccccc23)[C@@H]1c1ccc(NC(=O)OCCCCC)cc1` [Compound B-101], the IC50 with A431 (setting [5]) is 7.97 µM; with 786-O (setting [6]), 0.155 µM.
`C[C@H]1Cc2c([nH]c3ccccc23)[C@](C)(c2ccc(F)cc2)N1C(=O)CCl` [Compound C-18]: the IC50 in the assay on SJSA-1 (setting [8]) came out at 0.332 µM; in the assay on 786-O (setting [9]) it was 0.437 µM.
The matching figures for `C#CC(=O)N1CCc2c([nH]c3ccccc23)C1(C)c1ccc(F)cc1` (centres unmarked) [Compound C-19]: 1.89 µM and 2.32 µM.
On to `CC1(c2ccc(F)cc2)c2[nH]c3ccccc3c2CCN1C(=O)CCl` (centres unmarked) [Compound C-20], for which the IC50 in the assay with SJSA-1 (setting [8]) was 3.98 µM; with 786-O (setting [9]), 4.49 µM.
As for `C#CC(=O)N1[C@@H](CCCC)Cc2cc(OC)ccc2[C@]1(C)c1ccc(NC23CC4CC(CC(C4)C2)C3)cc1` [Compound C-35], the IC50 in the assay on A431 (setting [10]) was greater than 10 µM; in the assay with 786-O (setting [9]), 0.45 µM.
As for `C#CC(=O)N1[C@@H](CCCC)Cc2cc(OC)ccc2[C@@]1(C)c1ccc(NC23CC4CC(CC(C4)C2)C3)cc1` [Compound C-36], the IC50 with A431 (setting [10]) was greater than 10 µM; in the assay with 786-O (setting [9]), 0.69 µM.
